Data as given in patent publication US20190322676A1, “CERAMIDE GALACTOSYLTRANSFERASE INHIBITORS FOR THE TREATMENT OF DISEASE” (BioMarin Pharmaceutical Inc., priority 2016, published 2019).
Structures can show the parent of a compound that is named as a salt.

biological target: T1, human CGT (ceramide galactosyltransferase), CHO/CGT lysate (Homo sapiens, UniProt Q16880); experiment: CGT enzyme assay, RapidFire/MS/MS readout (Table 1 ranges with one asterisk *); assay type: biochemical; conditions: RapidFire method (range with one asterisk *)
T1 construct: Full-length human CGT cDNA was cloned into the BamH1/Xho1 site of pcDNA3.1 (+); expressed in transfected cells; host or cells: Chinese hamster ovary (CHO) cells; lysate prepared with M-PER
T1 sequence (Q16880 21-541): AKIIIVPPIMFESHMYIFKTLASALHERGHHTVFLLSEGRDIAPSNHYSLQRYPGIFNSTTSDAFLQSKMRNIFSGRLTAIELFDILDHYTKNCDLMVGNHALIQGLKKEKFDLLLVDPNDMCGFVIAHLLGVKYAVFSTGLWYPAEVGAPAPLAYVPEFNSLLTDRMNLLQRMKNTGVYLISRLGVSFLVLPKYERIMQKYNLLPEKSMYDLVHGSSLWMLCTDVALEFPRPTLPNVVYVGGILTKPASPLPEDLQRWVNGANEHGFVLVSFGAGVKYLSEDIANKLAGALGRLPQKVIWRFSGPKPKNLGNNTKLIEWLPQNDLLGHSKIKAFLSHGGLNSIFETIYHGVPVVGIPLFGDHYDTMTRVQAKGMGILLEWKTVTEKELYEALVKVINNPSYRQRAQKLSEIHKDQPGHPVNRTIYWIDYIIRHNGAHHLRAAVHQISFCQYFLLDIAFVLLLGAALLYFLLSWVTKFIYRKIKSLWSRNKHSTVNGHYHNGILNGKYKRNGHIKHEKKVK
How it was run: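 Lysate (4 μg) of CHO cells transfected with full-length human CGT incubated 1 h at 37 °C with compound (0.001–50 μM) in pH 7.2 HEPES buffer with 10 μM C6-NBD-dihydro-ceramide, 17.5 μM UDP-galactose, Mg2+/Mn2+, CHAPS, BSA, 0.5% DMSO; ** set also contained 0.01% Tween 80. Product quantified by RapidFire/MS/MS, normalized to internal standard; IC50 from sigmoidal variable-slope fits.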

Row | SMILES | IC50
1 | CN([C@H](C(=O)N1C2CCC1CC(N)C2)C(F)(F)c1cccc(Oc2ccccc2)c1)S(=O)(=O)c1ccc2cc(OC3CCCC3)ccc2c1 (stereo partly drawn) [Compound 111-1, N-((2R)-3-(3-amino-8-azabicyclo[3.2.1]octan-8-yl)-1,1-difluoro-3-oxo-1-(3-phenoxyphenyl)propan-2-yl)-6-(cyclopentyloxy)-N-methylnaphthalene-2-sulfonamide trifluoroacetate] | < 1 µM
2 | COc1cc(C(F)(F)[C@@H](NS(=O)(=O)c2ccc3cc(OC4CCCC4)ccc3c2)C(=O)N2C3CCC2CC(N)C3)ccc1-c1ccc(Cl)cc1 (stereo partly drawn) [Compound 135-2, N-((2S)-3-(3-amino-8-azabicyclo[3.2.1]octan-8-yl)-1-(4′-chloro-2-methoxy-[1,1′-biphenyl]-4-yl)-1,1-difluoro-3-oxopropan-2-yl)-6-(cyclopentyloxy)naphthalene-2-sulfonamide trifluoroacetate] | 1 to 10 µM
3 | CCCCOc1cc(C(F)(F)[C@H](NS(=O)(=O)c2ccc3cc(OC4CCCC4)ccc3c2)C(=O)N2C3CCC2CC(N)C3)ccc1Cl (stereo partly drawn) [Compound 118-1, N-((2R)-3-(3-amino-8-azabicyclo[3.2.1]octan-8-yl)-1-(3-butoxy-4-chlorophenyl)-1,1-difluoro-3-oxopropan-2-yl)-6-(cyclopentyloxy)naphthalene-2-sulfonamide] | < 1 µM
4 | COc1cc(C(F)(F)[C@@H](NS(=O)(=O)c2ccc(OCC3CCCCC3)cc2)C(=O)N2C3CCC2CC(N)C3)ccc1Cl (stereo partly drawn) [Compound 125-2, N-((2S)-3-(3-amino-8-azabicyclo[3.2.1]octan-8-yl)-1-(4-chloro-3-methoxyphenyl)-1,1-difluoro-3-oxopropan-2-yl)-4-(cyclohexylmethoxy)benzenesulfonamide] | 10 to 30 µM
5 | NC1CC2CCC(C1)N2C(=O)[C@H](NS(=O)(=O)c1ccc(OCC2CCCCC2)cc1)C(F)(F)c1ccc(C(F)(F)F)cc1 (stereo partly drawn) [Compound 59-2, N-((2S)-3-(3-amino-8-azabicyclo[3.2.1]octan-8-yl)-1,1-difluoro-3-oxo-1-(4-(trifluoromethyl)phenyl)propan-2-yl)-4-(cyclohexylmethoxy) benzenesulfonamide] | 1 to 10 µM
6 | NC1CCN(C(=O)[C@@H](NS(=O)(=O)c2ccc3c(cnn3CC3CCCC3)c2)C(F)(F)c2ccc(Cl)cc2)CC1 [Compound 99-1, (R)—N-(3-(4-aminopiperidin-1-yl)-1-(4-chlorophenyl)-1,1-difluoro-3-oxopropan-2-yl)-1-(cyclopentylmethyl)-1H-indazole-5-sulfonamide] | 1 to 10 µM
7 | COc1cc(C(F)(F)[C@H](NS(=O)(=O)c2ccc(OCC3CCCCC3)cc2)C(=O)N2C3CCC2CC(N)C3)ccc1Cl (stereo partly drawn) [Compound 125-1, N-((2R)-3-(3-amino-8-azabicyclo[3.2.1]octan-8-yl)-1-(4-chloro-3-methoxyphenyl)-1,1-difluoro-3-oxopropan-2-yl)-4-(cyclohexylmethoxy) benzenesulfonamide] | < 1 µM
8 | NCC1CCN(C(=O)[C@@H](NS(=O)(=O)c2ccc3cc(OC4CCCC4)ccc3c2)C(F)(F)c2ccc(Br)cc2)CC1 [Compound 57-1, (R)—N-(3-(4-(aminomethyl)piperidin-1-yl)-1-(4-bromophenyl)-1,1-difluoro-3-oxopropan-2-yl)-6-(cyclopentyloxy)naphthalene-2-sulfonamide trifluoroacetate] | < 1 µM
9 | NC1CCN(C(=O)[C@H](NS(=O)(=O)c2ccc(OCC3CCCCC3)cc2)C(F)(F)c2ccc(Oc3ccccc3)cc2)CC1 [Compound 63-2, (S)—N-(3-(4-aminopiperidin-1-yl)-1,1-difluoro-3-oxo-1-(4-phenoxyphenyl)propan-2-yl)-4-(cyclohexylmethoxy)benzenesulfonamide trifluoroacetate] | 10 to 30 µM
